In PubChem BioAssay AID330 (DTP/NCI, 2004):
Where “and” joins values, the source holds several entries; their conditions need not be identical. Equal values may be shown once. Toxic doses and inconclusive results are not listed. The calls were made as follows: active = survival T/C of 150% or more; inactive = T/C below 125% in these data.

System: P388 leukemia ip, CD2F1 mice, survival T/C
Assay: NCI In Vivo Anticancer Drug Screen. Data for tumor model P388 Leukemia (intraperitoneal) in CD2F1 (CDF1) mice
Conditions: endpoint: median survival time, higher = longer survival
How it was run: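 Mice carrying the transplanted tumor received test compound or vehicle. Survival was recorded in each group, and the value is the treated-group measurement divided by that of the vehicle-treated control group.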

[1] = dose: 50.0 mg/kg/injection, schedule: Q01DX005 (ip), vehicle: saline with Tween-80
[2] = dose: 100.0 mg/kg/injection, schedule: Q01DX005 (ip), vehicle: saline with Tween-80
[3] = dose: 50.0 mg/kg/injection, schedule: Q01DX009 (ip), vehicle: Klucel (hydroxypropylcellulose) (HPC)
[4] = dose: 100.0 mg/kg/injection, schedule: Q01DX009 (ip), vehicle: Klucel (hydroxypropylcellulose) (HPC)
[5] = dose: 200.0 mg/kg/injection, schedule: Q01DX009 (ip), vehicle: Klucel (hydroxypropylcellulose) (HPC)
[6] = dose: 12.5 mg/kg/injection, schedule: Q01DX009 (ip), vehicle: Klucel (hydroxypropylcellulose) (HPC)
[7] = dose: 25.0 mg/kg/injection, schedule: Q01DX009 (ip), vehicle: Klucel (hydroxypropylcellulose) (HPC)
[8] = dose: 100.0 mg/kg/injection, schedule: Q04DX002 (ip), vehicle: saline with Tween-80
[9] = dose: 6.25 mg/kg/injection, schedule: Q01DX009 (ip), vehicle: saline
[10] = dose: 12.5 mg/kg/injection, schedule: Q01DX009 (ip), vehicle: saline
[11] = dose: 50.0 mg/kg/injection, schedule: Q01DX009 (ip), vehicle: saline
[12] = dose: 100.0 mg/kg/injection, schedule: Q01DX009 (ip), vehicle: saline
[13] = dose: 200.0 mg/kg/injection, schedule: Q01DX009 (ip), vehicle: saline
[14] = dose: 60.0 mg/kg/injection, schedule: Q01DX005 (ip), vehicle: Klucel (hydroxypropylcellulose) (HPC)
[15] = dose: 120.0 mg/kg/injection, schedule: Q01DX005 (ip), vehicle: Klucel (hydroxypropylcellulose) (HPC)
[16] = dose: 240.0 mg/kg/injection, schedule: Q01DX005 (ip), vehicle: Klucel (hydroxypropylcellulose) (HPC)
[17] = dose: 50.0 mg/kg/injection, schedule: Q01DX005 (ip), vehicle: Klucel (hydroxypropylcellulose) (HPC)
[18] = dose: 50.0 mg/kg/injection, schedule: Q01DX009 (ip), vehicle: saline with Tween-80
[19] = dose: 100.0 mg/kg/injection, schedule: Q01DX009 (ip), vehicle: saline with Tween-80
[20] = dose: 200.0 mg/kg/injection, schedule: Q01DX009 (ip), vehicle: saline with Tween-80
[21] = dose: 25.0 mg/kg/injection, schedule: Q01DX009 (ip), vehicle: other
[22] = dose: 50.0 mg/kg/injection, schedule: Q01DX009 (ip), vehicle: other
[23] = dose: 100.0 mg/kg/injection, schedule: Q01DX009 (ip), vehicle: other
[24] = dose: 200.0 mg/kg/injection, schedule: Q01DX009 (ip), vehicle: other
[25] = dose: 100.0 mg/kg/injection, schedule: Q04DX002 (ip), vehicle: saline
[26] = dose: 200.0 mg/kg/injection, schedule: Q04DX002 (ip), vehicle: saline
[27] = dose: 400.0 mg/kg/injection, schedule: Q04DX002 (ip), vehicle: saline

Measured: T/C

S=c1[nH]nc(-c2n[nH]c3ccccc23)o1
inactive: [1] 100 % of control | [2] 100 % of control | dose: 200.0 mg/kg/injection, schedule: Q01DX005 (ip), vehicle: saline with Tween-80 97 % of control

CCCCCCOC(=O)c1ccc(Br)cc1
inactive: [3] 104 % of control | [4] 101 % of control | [5] 93 % of control

C=CCSc1nc2ccc(NC(C)=O)cc2s1
inactive: dose: 6.25 mg/kg/injection, schedule: Q01DX009 (ip), vehicle: Klucel (hydroxypropylcellulose) (HPC) 104 % of control | [6] 108 % of control | [7] 94 % of control

CS(=O)(=O)OC1COCOC1C1OCOCC1OS(C)(=O)=O (stereo unspecified)
inactive: [6] 91 % of control | [7] 92 % of control | [3] 95 % of control | [5] 102 % of control

N#CC(c1ccccc1)(N1CCOCC1)N1CCOCC1
inactive: dose: 6.25 mg/kg/injection, schedule: Q04DX003 (ip), vehicle: saline 101 % of control and 97 % of control | dose: 12.5 mg/kg/injection, schedule: Q04DX003 (ip), vehicle: saline 100 % of control and 101 % of control | dose: 25.0 mg/kg/injection, schedule: Q04DX003 (ip), vehicle: saline 100 % of control and 101 % of control (2×) | dose: 100.0 mg/kg/injection, schedule: Q04DX003 (ip), vehicle: saline with Tween-80 100 % of control

CCC[CH2][Sn](=[O])[c]1ccccc1
inactive: dose: 12.5 mg/kg/injection, schedule: Q04DX002 (ip), vehicle: saline with Tween-80 100 % of control and 119 % of control | dose: 25.0 mg/kg/injection, schedule: Q04DX002 (ip), vehicle: saline with Tween-80 103 % of control and 106 % of control | dose: 50.0 mg/kg/injection, schedule: Q04DX002 (ip), vehicle: saline with Tween-80 103 % of control and 109 % of control | [8] 103 % of control and 116 % of control

CSc1nc2nc[nH]c(=O)c2[nH]1
inactive: dose: 25.0 mg/kg/injection, schedule: Q01DX005 (ip), vehicle: saline with Tween-80 95 % of control | [1] 99 % of control | [2] 94 % of control

C(=N\SC(c1ccccc1)(c1ccccc1)c1ccccc1)/c1ccccc1
inactive: [1] 100 % of control | [2] 103 % of control

COc1ccc(C2CC(=O)C(C(=O)OC3CCCCC3)C2c2ccc(OC)cc2)cc1 (stereo unspecified)
inactive: dose: 12.5 mg/kg/injection, schedule: Q01DX001 (ip), vehicle: Klucel (hydroxypropylcellulose) (HPC) 92 % of control | dose: 25.0 mg/kg/injection, schedule: Q01DX001 (ip), vehicle: Klucel (hydroxypropylcellulose) (HPC) 93 % of control | dose: 50.0 mg/kg/injection, schedule: Q01DX001 (ip), vehicle: Klucel (hydroxypropylcellulose) (HPC) 86 % of control

C[N+](C)(C)CCC(=O)c1ccc(O)cc1
inactive: dose: 3.13 mg/kg/injection, schedule: Q01DX009 (ip), vehicle: saline 97 % of control | [9] 100 % of control | [10] 118 % of control

COc1cc(CC(N)C(C)=O)cc(OC)c1OC (stereo unspecified)
inactive: [11] 99 % of control | [12] 100 % of control | [13] 100 % of control

Cc1no[n+]([O-])c1C(=O)NN
inactive: [14] 103 % of control | [15] 94 % of control | [16] 100 % of control

S=c1[nH]nc2nc3c4ccccc4c4ncccc4c3nn12
inactive: dose: 100.0 mg/kg/injection, schedule: Q01DX001 (ip), vehicle: saline with Tween-80 92 % of control | dose: 200.0 mg/kg/injection, schedule: Q01DX001 (ip), vehicle: saline with Tween-80 91 % of control | dose: 400.0 mg/kg/injection, schedule: Q01DX001 (ip), vehicle: saline with Tween-80 100 % of control

O=C1C(=Cc2ccccc2O)C(=O)N(c2ccccc2)C(=S)N1c1ccccc1
inactive: [17] 100 % of control | dose: 100.0 mg/kg/injection, schedule: Q01DX005 (ip), vehicle: Klucel (hydroxypropylcellulose) (HPC) 100 % of control | dose: 200.0 mg/kg/injection, schedule: Q01DX005 (ip), vehicle: Klucel (hydroxypropylcellulose) (HPC) 100 % of control

Nc1ncnc2c1CCc1ccccc1-2
inactive: [8] 107 % of control | dose: 200.0 mg/kg/injection, schedule: Q04DX002 (ip), vehicle: saline with Tween-80 112 % of control

O=C(Nc1ccccc1)Sc1nnc2c3ccccc3c3ccccc3c2n1
inactive: [18] 100 % of control | [19] 101 % of control | [20] 99 % of control

[N-]=[N+]=Nc1cccc(Nc2c3ccccc3nc3ccccc23)c1
inactive: [3] 98 % of control | [4] 100 % of control | [5] 107 % of control

ClC(Cl)c1nc2ccccc2[nH]1
inactive: [9] 108 % of control | [10] 100 % of control | dose: 25.0 mg/kg/injection, schedule: Q01DX009 (ip), vehicle: saline 108 % of control | [11] 101 % of control

CN1CCCCC1CCN1c2ccccc2Sc2ccc(S(C)=O)cc21 (stereo unspecified)
inactive: dose: 12.5 mg/kg/injection, schedule: Q01DX005 (ip), vehicle: saline 100 % of control and 102 % of control and 105 % of control | dose: 25.0 mg/kg/injection, schedule: Q01DX005 (ip), vehicle: saline 100 % of control and 105 % of control and 114 % of control | dose: 100.0 mg/kg/injection, schedule: Q01DX005 (ip), vehicle: saline 102 % of control and 103 % of control

Cc1ccc(NC(=S)N/N=C\c2nc3ccccc3c3ccccc23)cc1
inactive: dose: 100.0 mg/kg/injection, schedule: Q04DX002 (ip), vehicle: Klucel (hydroxypropylcellulose) (HPC) 98 % of control | dose: 200.0 mg/kg/injection, schedule: Q04DX002 (ip), vehicle: Klucel (hydroxypropylcellulose) (HPC) 92 % of control | dose: 400.0 mg/kg/injection, schedule: Q04DX002 (ip), vehicle: Klucel (hydroxypropylcellulose) (HPC) 93 % of control

Cn1c(-c2ccccc2)c2c(c1-c1ccccc1)C(=O)c1c(c(-c3ccccc3)n(C)c1-c1ccccc1)C2=O
inactive: [3] 94 % of control | [4] 92 % of control | [5] 97 % of control

CC1(C)N=NC([Si](C)(C)C)=C1C(=O)c1ccccc1
inactive: [14] 101 % of control | [15] 98 % of control | [16] 105 % of control

COC1c2cc3ccccc3nc2-c2ccccc2C1(C)C (stereo unspecified)
inactive: [21] 99 % of control | [22] 96 % of control | [23] 93 % of control | [24] 89 % of control | dose: 400.0 mg/kg/injection, schedule: Q01DX009 (ip), vehicle: other 89 % of control

CCOC(=O)NN(C(=O)OCC)/C(C(=O)OCC)=C(/C)N
inactive: [11] 97 % of control and 102 % of control and 93 % of control | [12] 97 % of control and 104 % of control | [13] 98 % of control and 89 % of control

CCc1ccc(NCc2ccc(CNc3ccc(CC)cc3)cc2)cc1
inactive: [18] 86 % of control | [19] 96 % of control | [20] 94 % of control

N#CNC(=S)S
inactive: [25] 105 % of control | [26] 109 % of control | [27] 105 % of control

CCCCN=Cc1ccccc1O.CCCCN=Cc1ccccc1O.[Cu]
inactive: [17] 99 % of control

COc1ccc(C(c2cc3c(cc2O)OCO3)N2CCCC2)c(OC)c1 (stereo unspecified)
inactive: [14] 111 % of control | [15] 118 % of control

CC(=O)C(/C=N/C(N)=O)=C(/C)O
inactive: dose: 50.0 mg/kg/injection, schedule: Q04DX003 (ip), vehicle: saline 100 % of control | dose: 100.0 mg/kg/injection, schedule: Q04DX003 (ip), vehicle: saline 100 % of control | dose: 200.0 mg/kg/injection, schedule: Q04DX003 (ip), vehicle: saline 110 % of control

O=C1CC(SC(=S)N2CCCCC2)C(=O)N1c1ccccc1 (stereo unspecified)
inactive: [25] 105 % of control and 98 % of control | [26] 100 % of control and 109 % of control | [27] 100 % of control and 104 % of control

COc1ccc(C(O)OC2CC3C=CC2C3)cc1 (stereo unspecified)
inactive: dose: 12.5 mg/kg/injection, schedule: Q01DX009 (ip), vehicle: other 114 % of control | [21] 110 % of control | [22] 114 % of control | [23] 114 % of control | [24] 111 % of control
